Data set [1] has as its system HeLa cervical carcinoma cells. As to the kind of experiment: Cell proliferation assay (WST-8). The data set is classed as cell-based, human. The note with it: 10 nM kinase inhibitors, 10 μg/mL antibodies. Here is the method:
(§1) Cell proliferation was determined using an ELISA plate reader and the WST-8 kit (Dojindo technologies) following the manufacturer's instructions and using the formula: % survival rate=(Sample-Background)/(Negative control-Background). Lapatinib (MSKCC pharmacy) was ground using a mortar and pestle and suspended in DMSO as previously described. To determine statistical significance, the results were analyzed using one-way ANOVA using Prism 6.0.
(§2) For cell proliferation assays, 5,000 tumor cells were plated using RPMI-1640 supplemented with 10% FBS in a 96 well plate for 36 hours before being treated with lapatinib or the antibodies at the specified concentrations. Cell proliferation was determined using an ELISA plate reader and the WST-8 kit (Dojindo technologies) following the manufacturer's instructions and using the formula: % survival rate=(Sample-Background)/(Negative control-Background). Lapatinib (Memorial Sloan Kettering Cancer Center pharmacy) was ground using a mortar and pestle and suspended in DMSO as previously described (Chen et al., 2012, Molecular cancer therapeutics 11:660-669). To determine statistical significance, the results were analyzed using one-way ANOVA using Prism 6.0.
(§3) For tumor cell proliferation, 5,000 tumor cells were plated using RPMI-1640 supplemented with 10% fetal bovine serum (“FBS”) in a 96 well plate for 36 hours before being treated with—kinase inhibitors or the antibodies at the specified concentration. Cell proliferation was determined using the cell counting WST-8 kit (Dojindo technologies) following the manufacturer's instructions and using the formula: % survival rate=(Sample-Background)/(Negative control-Background). Lapatinib was ground using a mortar and pestle and suspended in DMSO as previously described (Chen et al., Molecular cancer therapeutics 2012; 11:660-9). To determine statistical significance, the results were analyzed using one-way ANOVA using Prism 6.0.
A general note: Tetrazolium dyes change colour on reduction, which living cells bring about.

The subject of data set [2] is SCCHN cell line PCI-30. As to the kind of experiment: Cell proliferation assay (WST-8). Type of data set: cell-based, human. The following applies: 10 nM kinase inhibitors, 10 μg/mL antibodies. Here is the method:
as §1, §2, §3

Data set [3] deals with U2OS osteosarcoma cells. The data set is described as follows: Cell proliferation assay (WST-8). Type of data set: cell-based, human. The following applies: 10 nM kinase inhibitors, 10 μg/mL antibodies. The method, then: as §1, §2, §3
The subject of data set [4] is HCC1954 breast cancer xenografts. The data set is described as follows: Xenograft, subcutaneous tumor plus intravenous effector cells. Type of data set: in vivo, DKO mice. The following applies: s.c. HCC1954; for tumor volume changes, PD1/PDL1 blockade resistant model: i.v. PBMC 7.5×10^6 once per week for 2 weeks, 100 μg each twice per week for 4 weeks.
Source text: For in vivo therapy studies, BALB-Rag2-/−IL-2R-γc-KO (“DKO”) mice (derived from colony of Dr. Mamoru Ito, CIEA, Kawasaki, Japan; see, e.g., Koo et al., 2009, Expert Rev Vaccines 8:113-20 and Andrade et al., 2011, Arthritis Rheum 63:2764-73) were used. […] Subcutaneous xenografts were created with 5×10^6 cells suspended in Matrigel (Corning Corp, Tewksbury Mass.) and implanted in the flank of DKO mice. Effector peripheral blood mononuclear cell (PBMC) cells were purified from buffy coats purchased from the New York Blood Center. Prior to every experimental procedure, PBMCs were analyzed for their percentage of CD3, CD4, CD8 and CD56 cells to ensure consistency. […] Tumor size was measured using (1) hand-held TM900 scanner (Pieira, Brussels, BE); (2) Calipers; or (3) bioluminescence. Bioluminescence imaging was conducted using the Xenogen In Vivo Imaging System (IVIS) 200 (Caliper LifeSciences). Briefly, mice were injected intravenously with 0.1 mL solution of D-luciferin (Gold Biotechnology; 30 mg/mL stock in PBS). Images were collected 1 to 2 minutes after injection using the following parameters: a 10- to 60-second exposure time, medium binning, and an 8 f/stop. Bioluminescence image analysis was performed using Living Image 2.6 (Caliper LifeSciences).
For in vivo therapy studies, BALB-Rag2-/−IL-2R-γc-KO (DKO) mice (derived from colony of Dr. Mamoru Ito, CIEA, Kawasaki, Japan)(Koo et al., Expert Rev Vaccines 2009; 8:113-20; Andrade et al., Arthritis Rheum 2011; 63:2764-73) were used. […] Effector PBMC cells and ATCs were prepared as described above. Prior to every experimental procedure, PBMCs and ATCs were analyzed by FACS for their percentage of CD3, CD4, CD8 and CD56 cells to ensure consistency. […] Tumor size was measured using 1) hand-held TM900 scanner (Pieira, Brussels, BE), 2) Calipers, or 3) Bioluminescence. […]
Data set [5] deals with CD3 (Homo sapiens, UniProt P07766). The data set is described as follows: Binding affinity analysis by Biacore (Surface Plasmon Resonance). The note with it: antigen CD3, Biacore. Here is the method:
Binding assays were performed by Surface Plasmon Resonance using Biacore T100 similar as described in Okazaki et al., 2004, J Mol Biol; 336(5): 1239-1249.

The subject of data set [6] is naïve T cells with or without NCI-N87 tumor cells. As to the kind of experiment: Cytokine release assay with naive T cells. Type of data set: cell-based, human. The following applies: 16.7 nM antibody, 24 hours. Here is the method:
Cytokine release was assayed as previously described (Ahmed et al., Oncolmmunology 2015; 4:e989776), using naïve T cells prepared as described above. T cells (200,000/well) were cultured with or without NCI-N87 tumor cells (10,000/well) for 24 hours before supernatants being harvested for ELISA-based cytokine assay.

Data set [7] concerns naïve T cells. As to the kind of experiment: T cell proliferation assay (WST-8). Type of data set: cell-based, human. The note with it: 67 nM antibody, absence of tumor targets, 6 days. Here is the method:
For T cell proliferation, naïve T cells were purified from human PBMC using Pan T cell isolation kit (Miltenyi Biotec). 2×10^5 purified T cells were mixed with different antibodies in 96-well cell culture plate to a final volume of 250 μl/well. T cells were cultured and maintained in RPMI-1640 supplemented with 10% FBS in 37° C. for 6 days. T cell proliferation was quantitated using the WST-8 kit as described above.

Data set [8] concerns HeLa cervical cancer cells. As to the kind of experiment: HER2-BsAb redirected T cell cytotoxicity, 51Cr release assay. The data set is classed as cell-based, human. The following applies: pretreatment with lapatinib. Here is the method:
(§4) The ^51Cr release assay was performed with effector T cells cultured in vitro in the presence of anti-CD3 and anti-CD28 for about 14 days. […] 5000 target cells/well were mixed with 50,000 effector cells (E:T=10:1) and BsAb antibodies in 96-well polystyrene round-bottom plates (BD Biosciences) to a final volume of 250 μl/well. The plates were incubated at 37° C. for 4 h. […] Percentage of specific release was calculated using the formula: (experimental cpm−background cpm)/(total cpm−background cpm)×100%, where cpm represented counts per minute of ^51Cr released. […] EC50 was calculated using SigmaPlot software.
(§5) Cell cytotoxicity was assayed by ^51Cr release as previously described (Xu et al., Cancer immunology research 2015; 3:266-77), and EC50 was calculated using SigmaPlot software. Effector PBMC cells were purified from buffy coats purchased from the New York Blood Center. ATCs were first purified from human PBMC using Pan T cell isolation kit, and then activated and expanded for approximately 14 days with CD3/CD28 Dynabeads (Invitrogen) according to manufacturer's protocol.

Data set [9] deals with trastuzumab-sensitive breast carcinoma cell line SKBR3. The data set is described as follows: Cell proliferation assay (WST-8). The data set is classed as cell-based, human. The note with it: lapatinib 10 nM, 72 hours. The method, then: as §1, §2, §3
The test system of data set [10] is HER2(+) SCCHN cell line PCI-13. The data set is described as follows: Blocking of HER2-BsAb T-cell cytotoxicity by trastuzumab or huOKT3. The note with it: 0.1 μg/mL HER2-BsAb with 10 μg/mL blocking antibody. The data set is classed as cell-based, human. The method, then:
as §5

In data set [11] the test system is HER2-positive cells. As to the kind of experiment: Blocking of HER2-BsAb induced T cell cytotoxicity. The data set is classed as cell-based, human. The following applies: HER2-positive cells pre-incubated with blocking antibody. Here is the method:
as §4

Sequence of CD3 (P07766 23-126 limits assumed): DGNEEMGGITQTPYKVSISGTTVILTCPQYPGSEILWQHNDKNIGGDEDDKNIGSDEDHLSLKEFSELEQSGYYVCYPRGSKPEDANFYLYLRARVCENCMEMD

For `C#Cc1cccc(Nc2ncnc3cc(OCCOC)c(OCCOC)cc23)c1` [erlotinib], the “sensitivity of cells in proliferation assay” value (“sensitivity of cells” below) in data set [1] is listed as “pan-resistant”; in data set [2], “resistant”; in data set [3], “minimal sensitivity”.
Pembrolizumab: the “tumor volume changes, PD1/PDL1 blockade resistant model” value in data set [4] is “no effect”.
What is called Kd is the free concentration of one partner at which half of the binding sites on the other are occupied at equilibrium, for simple one-to-one binding. Low readings indicate a tighter complex, high ones a looser complex. The koff is the first-order rate constant of dissociation. The kon is the rate constant with which the complex forms. In data set [5], “huOKT3 IgG1-aGlyco: parental aglycosylated huOKT3 IgG1” had a Kd of 64.6 nM, a koff of 0.109 s⁻¹ and a kon of 1.68e+06 M⁻¹ s⁻¹.
Consider “huOKT3 Fab: monovalent Fab prepared from huOKT3 IgG1”, for which, in [6], the “cytokine release in the absence of tumor targets” value is on record as “background cytokine release”. Further, in [7], the T cell proliferation entry is given as “negligible effects”.
As for `CS(=O)(=O)CCNCc1ccc(-c2ccc3ncnc(Nc4ccc(OCc5cccc(F)c5)c(Cl)c4)c3c2)o1` [lapatinib], in data set [8], the “effect of pretreatment on HER2-BsAb mediated cytotoxicity” value is “increased sensitivity”. For the same compound, the “sensitivity of cells” value in [1] is recorded as “pan-resistant”; in data set [2], “resistant”; in data set [3] it was “minimal sensitivity”. Besides, the “inhibition of cell proliferation (positive control)” value in [9] was “strongest inhibition of cell proliferation”.
Consider Atezolizumab, for which, in data set [4], the “tumor volume changes, PD1/PDL1 blockade resistant model” value is given as “no effect”.
Regarding `CCOc1cc2ncc(C#N)c(Nc3ccc(OCc4ccccn4)c(Cl)c3)c2cc1NC(=O)/C=C/CN(C)C` [neratinib], the “sensitivity of cells” value is recorded as “pan-resistant” in data set [1], “resistant” in [2] and “minimal sensitivity” in data set [3].
Turning to “huOKT3: humanized OKT3 anti-CD3 IgG1, same variable sequences as in huOKT3 scFv”, the “blocking of HER2-BsAb mediated T-cell cytotoxicity” value in data set [10] is given as “prevented”. For the same compound, the tumor growth result in data set [4] (i.v. PBMC once a week for 3 weeks, i.v. antibody twice a week for 3 weeks) is listed as “only modest effects”. Further, the “cytokine release in the absence of tumor targets” value in data set [6] is on record as “substantially more cytokines”. The T cell proliferation entry in data set [7] is “robust T cell proliferation”. For the same compound, the “blocking of the ability of HER2-BsAb to induce T cell cytotoxicity” value in [11] is recorded as “blocked”.

The values above are taken from patent US11820832B2, “Bispecific HER2 and CD3 binding molecules” (MEMORIAL SLOAN KETTERING CANCER CENTER, priority 2014, dated 2023).
